In article PMC4175002, “The Design and Synthesis of Potent and Selective Inhibitors of Trypanosoma brucei Glycogen Synthase Kinase 3 for the Treatment of Human African Trypanosomiasis” (Journal of Medicinal Chemistry, 2014):

Tests used:
Assay in all cases: Mammalian kinase profiling (DSTT panel)
Format in all cases: biochemical
Conditions in all cases: 10 μM; average percentage of remaining activity
BTK = molecular target: T1, BTK (Homo sapiens, UniProt Q06187)
T1 construct: purchased Division of Signal Transduction Therapy (DSTT), University of Dundee
T1 sequence (Q06187 whole entry): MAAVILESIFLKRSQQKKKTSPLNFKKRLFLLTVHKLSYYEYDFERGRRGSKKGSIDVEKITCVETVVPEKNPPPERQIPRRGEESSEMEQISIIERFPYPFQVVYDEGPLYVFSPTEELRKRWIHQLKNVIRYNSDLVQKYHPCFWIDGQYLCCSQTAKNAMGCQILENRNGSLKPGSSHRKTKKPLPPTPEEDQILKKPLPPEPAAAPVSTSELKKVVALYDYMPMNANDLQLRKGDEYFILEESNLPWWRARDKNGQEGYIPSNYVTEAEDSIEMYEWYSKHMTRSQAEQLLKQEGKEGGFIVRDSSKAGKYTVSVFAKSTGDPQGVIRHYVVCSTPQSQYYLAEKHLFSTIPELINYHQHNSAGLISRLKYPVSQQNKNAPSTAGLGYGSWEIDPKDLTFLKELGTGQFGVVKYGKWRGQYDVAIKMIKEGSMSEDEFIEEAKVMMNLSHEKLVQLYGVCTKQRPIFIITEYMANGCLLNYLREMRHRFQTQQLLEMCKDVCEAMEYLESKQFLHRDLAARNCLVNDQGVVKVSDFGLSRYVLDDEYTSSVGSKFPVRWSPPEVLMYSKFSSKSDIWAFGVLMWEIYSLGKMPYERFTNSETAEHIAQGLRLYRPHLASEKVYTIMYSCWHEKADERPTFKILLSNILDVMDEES
Method: (§1) To assess the selectivity of the aminopyrazole inhibitors, remaining activity at 10 μM concentration was measured for compounds 4f, 4m, and 4y against a panel of 80 human PKs and for compound 9g against 124 human PKs. […] Compound 4m inhibited only two PKs, namely GSK3β and CDK2, at more than 80%.
(§2) Selected compounds were screened against a panel of mammalian kinases routinely run by the Division of Signal Transduction Therapy (DSTT) at the University of Dundee in duplicate at 10 μM.[32] Enzymes included in the panel and assay conditions are reported in the literature. All biochemical assays are run below the Km^app for the ATP for each enzyme, allowing comparison of inhibition across the panel.

CAMK1 = molecular target: T2, CAMK1 (Homo sapiens, UniProt Q14012)
T2 construct: purchased Division of Signal Transduction Therapy (DSTT), University of Dundee
T2 sequence (Q14012 whole entry): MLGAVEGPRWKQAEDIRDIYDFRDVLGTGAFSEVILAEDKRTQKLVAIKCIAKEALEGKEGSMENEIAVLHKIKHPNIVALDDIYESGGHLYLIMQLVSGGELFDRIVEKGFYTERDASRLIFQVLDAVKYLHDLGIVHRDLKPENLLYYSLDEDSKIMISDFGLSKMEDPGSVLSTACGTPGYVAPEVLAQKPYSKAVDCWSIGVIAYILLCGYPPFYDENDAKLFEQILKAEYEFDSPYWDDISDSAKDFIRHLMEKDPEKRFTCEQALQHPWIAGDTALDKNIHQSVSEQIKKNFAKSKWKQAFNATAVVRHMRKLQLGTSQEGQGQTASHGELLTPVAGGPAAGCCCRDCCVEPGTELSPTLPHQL
Method: as §1, §2

CK2 = molecular target: T3, CK2 (Homo sapiens, UniProt P68400)
T3 construct: purchased Division of Signal Transduction Therapy (DSTT), University of Dundee
T3 sequence (P68400 whole entry): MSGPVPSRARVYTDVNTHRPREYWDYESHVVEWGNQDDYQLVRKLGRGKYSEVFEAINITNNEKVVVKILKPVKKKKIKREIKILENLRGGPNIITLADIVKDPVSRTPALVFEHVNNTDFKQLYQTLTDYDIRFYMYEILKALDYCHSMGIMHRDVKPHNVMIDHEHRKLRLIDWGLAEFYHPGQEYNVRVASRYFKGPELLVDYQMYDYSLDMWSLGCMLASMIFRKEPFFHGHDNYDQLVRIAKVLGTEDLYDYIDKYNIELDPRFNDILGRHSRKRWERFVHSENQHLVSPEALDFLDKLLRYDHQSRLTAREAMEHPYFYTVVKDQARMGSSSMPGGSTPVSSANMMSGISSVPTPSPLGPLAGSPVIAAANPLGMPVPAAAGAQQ
Method: as §1, §2

EPH-B3 = molecular target: T4, EPH-B3 (Homo sapiens, UniProt P54753)
T4 construct: purchased Division of Signal Transduction Therapy (DSTT), University of Dundee
T4 sequence (P54753 34-998): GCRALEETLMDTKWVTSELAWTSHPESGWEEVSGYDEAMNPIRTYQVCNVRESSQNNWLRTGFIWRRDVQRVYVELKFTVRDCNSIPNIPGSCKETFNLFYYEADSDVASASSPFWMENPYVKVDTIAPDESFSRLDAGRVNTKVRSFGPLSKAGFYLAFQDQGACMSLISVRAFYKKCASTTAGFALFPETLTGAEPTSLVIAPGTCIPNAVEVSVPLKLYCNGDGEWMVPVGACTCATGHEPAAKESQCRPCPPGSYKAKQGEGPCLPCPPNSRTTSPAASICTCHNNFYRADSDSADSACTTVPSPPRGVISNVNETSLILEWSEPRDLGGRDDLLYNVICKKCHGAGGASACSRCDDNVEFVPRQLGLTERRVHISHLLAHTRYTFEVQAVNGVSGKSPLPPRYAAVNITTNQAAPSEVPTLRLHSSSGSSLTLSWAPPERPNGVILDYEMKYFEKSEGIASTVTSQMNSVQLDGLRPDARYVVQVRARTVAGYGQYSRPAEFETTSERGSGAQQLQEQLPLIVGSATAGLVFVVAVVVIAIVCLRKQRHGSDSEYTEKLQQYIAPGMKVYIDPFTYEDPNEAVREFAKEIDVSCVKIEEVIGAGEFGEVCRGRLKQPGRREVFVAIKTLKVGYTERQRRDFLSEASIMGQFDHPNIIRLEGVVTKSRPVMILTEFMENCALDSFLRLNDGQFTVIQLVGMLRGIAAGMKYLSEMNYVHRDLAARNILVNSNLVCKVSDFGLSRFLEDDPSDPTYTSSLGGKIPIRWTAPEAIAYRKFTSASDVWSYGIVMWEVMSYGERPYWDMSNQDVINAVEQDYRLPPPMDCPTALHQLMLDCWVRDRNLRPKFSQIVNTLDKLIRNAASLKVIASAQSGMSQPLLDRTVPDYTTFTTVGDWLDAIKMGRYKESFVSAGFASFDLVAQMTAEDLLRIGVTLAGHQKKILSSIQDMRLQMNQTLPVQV
Method: as §1, §2

ERK1 = molecular target: T5, ERK1 (Homo sapiens, UniProt P27361)
T5 construct: purchased Division of Signal Transduction Therapy (DSTT), University of Dundee
T5 sequence (P27361 whole entry): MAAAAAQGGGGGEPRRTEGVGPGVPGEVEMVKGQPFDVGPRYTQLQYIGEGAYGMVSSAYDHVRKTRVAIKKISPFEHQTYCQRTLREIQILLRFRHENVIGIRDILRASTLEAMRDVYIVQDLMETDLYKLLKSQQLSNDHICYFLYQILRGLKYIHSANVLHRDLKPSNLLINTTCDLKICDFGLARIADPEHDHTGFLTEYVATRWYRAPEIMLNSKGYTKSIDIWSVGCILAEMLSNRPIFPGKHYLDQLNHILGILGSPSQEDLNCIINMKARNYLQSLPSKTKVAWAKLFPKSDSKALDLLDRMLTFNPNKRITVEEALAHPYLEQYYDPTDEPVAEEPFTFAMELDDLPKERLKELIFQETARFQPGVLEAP
Method: as §1, §2

Lck = molecular target: T6, Lck (Homo sapiens, UniProt P06239)
T6 construct: purchased Division of Signal Transduction Therapy (DSTT), University of Dundee
Method: as §1, §2

NEK2a = molecular target: T7, NEK2a (Homo sapiens, UniProt P51955)
T7 construct: purchased Division of Signal Transduction Therapy (DSTT), University of Dundee
T7 sequence (P51955 1-445): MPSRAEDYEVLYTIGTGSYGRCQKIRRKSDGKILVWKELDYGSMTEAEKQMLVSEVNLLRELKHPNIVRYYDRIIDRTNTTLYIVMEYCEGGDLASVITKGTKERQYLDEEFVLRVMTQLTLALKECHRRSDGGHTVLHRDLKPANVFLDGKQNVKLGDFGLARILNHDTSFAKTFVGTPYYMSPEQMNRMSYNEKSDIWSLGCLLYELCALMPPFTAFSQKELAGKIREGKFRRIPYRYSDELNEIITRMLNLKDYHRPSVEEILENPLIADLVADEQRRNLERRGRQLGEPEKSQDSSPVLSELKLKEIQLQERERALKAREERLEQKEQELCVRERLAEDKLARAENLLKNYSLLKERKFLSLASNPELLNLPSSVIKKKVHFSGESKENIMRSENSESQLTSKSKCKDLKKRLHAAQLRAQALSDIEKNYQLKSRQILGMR
Method: as §1, §2

PAK4 = molecular target: T8, PAK4 (Homo sapiens, UniProt O96013)
T8 construct: purchased Division of Signal Transduction Therapy (DSTT), University of Dundee
T8 sequence (O96013 whole entry): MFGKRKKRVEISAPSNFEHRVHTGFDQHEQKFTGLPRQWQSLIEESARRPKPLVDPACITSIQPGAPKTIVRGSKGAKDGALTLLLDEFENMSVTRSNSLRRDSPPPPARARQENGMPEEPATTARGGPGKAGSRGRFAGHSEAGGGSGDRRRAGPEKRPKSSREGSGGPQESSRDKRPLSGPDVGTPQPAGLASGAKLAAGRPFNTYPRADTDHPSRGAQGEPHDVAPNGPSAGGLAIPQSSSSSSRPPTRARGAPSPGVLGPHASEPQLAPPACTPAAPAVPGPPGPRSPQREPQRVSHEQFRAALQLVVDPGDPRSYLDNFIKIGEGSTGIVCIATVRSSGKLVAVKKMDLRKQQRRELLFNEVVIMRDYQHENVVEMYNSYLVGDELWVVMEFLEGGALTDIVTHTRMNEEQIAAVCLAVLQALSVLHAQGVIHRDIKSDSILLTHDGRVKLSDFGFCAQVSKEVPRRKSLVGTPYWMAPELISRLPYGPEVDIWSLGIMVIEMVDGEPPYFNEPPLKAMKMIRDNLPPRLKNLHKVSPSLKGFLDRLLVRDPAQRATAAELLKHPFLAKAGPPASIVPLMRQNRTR
Method: as §1, §2

PIM2 = molecular target: T9, PIM2 (Homo sapiens, UniProt Q9P1W9)
T9 construct: purchased Division of Signal Transduction Therapy (DSTT), University of Dundee
T9 sequence (Q9P1W9 whole entry): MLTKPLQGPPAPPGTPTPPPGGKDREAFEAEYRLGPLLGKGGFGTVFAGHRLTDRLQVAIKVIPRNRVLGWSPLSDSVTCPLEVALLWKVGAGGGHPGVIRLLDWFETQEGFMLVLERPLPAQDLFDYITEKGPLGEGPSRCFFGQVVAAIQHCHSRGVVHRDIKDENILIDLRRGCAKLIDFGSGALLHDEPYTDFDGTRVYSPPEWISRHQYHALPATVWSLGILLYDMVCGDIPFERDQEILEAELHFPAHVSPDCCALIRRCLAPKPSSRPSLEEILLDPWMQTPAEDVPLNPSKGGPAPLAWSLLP
Method: as §1, §2

PKA = molecular target: T10, PKA (Homo sapiens, UniProt P17612)
T10 construct: purchased Division of Signal Transduction Therapy (DSTT), University of Dundee
Method: as §1, §2

PKCa = molecular target: T11, PKCa (Homo sapiens, UniProt P17252)
T11 construct: purchased Division of Signal Transduction Therapy (DSTT), University of Dundee
Method: as §1, §2

PRAK = molecular target: T12, PRAK (Homo sapiens, UniProt Q8IW41)
T12 construct: purchased Division of Signal Transduction Therapy (DSTT), University of Dundee
T12 sequence (Q8IW41 1-473): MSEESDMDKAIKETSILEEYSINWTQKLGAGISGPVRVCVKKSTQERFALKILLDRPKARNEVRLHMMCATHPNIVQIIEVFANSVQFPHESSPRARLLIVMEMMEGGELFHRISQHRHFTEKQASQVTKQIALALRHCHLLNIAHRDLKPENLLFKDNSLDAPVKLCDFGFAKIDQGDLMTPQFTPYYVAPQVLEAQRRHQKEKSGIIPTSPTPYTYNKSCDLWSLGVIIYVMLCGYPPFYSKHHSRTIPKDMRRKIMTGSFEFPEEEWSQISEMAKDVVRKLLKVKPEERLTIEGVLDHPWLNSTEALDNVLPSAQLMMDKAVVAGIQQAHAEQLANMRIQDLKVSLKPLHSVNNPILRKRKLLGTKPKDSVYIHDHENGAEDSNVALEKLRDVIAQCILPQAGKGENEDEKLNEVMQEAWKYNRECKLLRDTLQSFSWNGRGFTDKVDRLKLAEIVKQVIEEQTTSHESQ
Method: as §1, §2

ROCK2 = molecular target: T13, ROCK2 (Homo sapiens, UniProt O75116)
T13 construct: purchased Division of Signal Transduction Therapy (DSTT), University of Dundee
Method: as §1, §2

SYK = molecular target: T14, SYK (Homo sapiens, UniProt P43405)
T14 construct: purchased Division of Signal Transduction Therapy (DSTT), University of Dundee
Method: as §1, §2

SmMLCK = molecular target: T15, SmMLCK (Homo sapiens, UniProt Q15746)
T15 construct: purchased Division of Signal Transduction Therapy (DSTT), University of Dundee
T15 sequence (Q15746 923-1914): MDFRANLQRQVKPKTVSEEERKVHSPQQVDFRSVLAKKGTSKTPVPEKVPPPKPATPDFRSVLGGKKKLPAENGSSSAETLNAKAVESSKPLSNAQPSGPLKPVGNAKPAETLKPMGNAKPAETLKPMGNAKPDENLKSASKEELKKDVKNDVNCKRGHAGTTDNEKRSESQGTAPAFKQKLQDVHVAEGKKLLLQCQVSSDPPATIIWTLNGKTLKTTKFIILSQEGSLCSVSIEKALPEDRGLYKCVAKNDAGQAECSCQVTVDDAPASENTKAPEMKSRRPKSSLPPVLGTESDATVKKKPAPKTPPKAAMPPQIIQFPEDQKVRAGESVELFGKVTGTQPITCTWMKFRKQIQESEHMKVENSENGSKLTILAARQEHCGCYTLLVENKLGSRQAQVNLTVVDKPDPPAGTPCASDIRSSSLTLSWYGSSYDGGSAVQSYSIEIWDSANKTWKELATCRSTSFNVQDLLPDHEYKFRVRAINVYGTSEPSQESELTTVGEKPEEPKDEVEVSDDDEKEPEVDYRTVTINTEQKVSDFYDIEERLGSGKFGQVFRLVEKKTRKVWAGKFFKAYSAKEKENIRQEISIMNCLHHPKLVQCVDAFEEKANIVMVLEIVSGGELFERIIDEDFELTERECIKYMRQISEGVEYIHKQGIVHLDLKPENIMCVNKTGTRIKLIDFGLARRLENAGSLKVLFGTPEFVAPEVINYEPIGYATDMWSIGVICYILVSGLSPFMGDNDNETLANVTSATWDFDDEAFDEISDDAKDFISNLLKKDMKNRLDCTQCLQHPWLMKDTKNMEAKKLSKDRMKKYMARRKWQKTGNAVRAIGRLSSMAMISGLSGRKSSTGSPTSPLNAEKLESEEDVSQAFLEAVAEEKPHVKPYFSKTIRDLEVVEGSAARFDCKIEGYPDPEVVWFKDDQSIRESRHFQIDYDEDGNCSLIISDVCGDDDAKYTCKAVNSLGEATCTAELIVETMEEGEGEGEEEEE
Method: as §1, §2

YES1 = molecular target: T16, YES1 (Homo sapiens, UniProt P07947)
T16 construct: purchased Division of Signal Transduction Therapy (DSTT), University of Dundee
T16 sequence (P07947 whole entry): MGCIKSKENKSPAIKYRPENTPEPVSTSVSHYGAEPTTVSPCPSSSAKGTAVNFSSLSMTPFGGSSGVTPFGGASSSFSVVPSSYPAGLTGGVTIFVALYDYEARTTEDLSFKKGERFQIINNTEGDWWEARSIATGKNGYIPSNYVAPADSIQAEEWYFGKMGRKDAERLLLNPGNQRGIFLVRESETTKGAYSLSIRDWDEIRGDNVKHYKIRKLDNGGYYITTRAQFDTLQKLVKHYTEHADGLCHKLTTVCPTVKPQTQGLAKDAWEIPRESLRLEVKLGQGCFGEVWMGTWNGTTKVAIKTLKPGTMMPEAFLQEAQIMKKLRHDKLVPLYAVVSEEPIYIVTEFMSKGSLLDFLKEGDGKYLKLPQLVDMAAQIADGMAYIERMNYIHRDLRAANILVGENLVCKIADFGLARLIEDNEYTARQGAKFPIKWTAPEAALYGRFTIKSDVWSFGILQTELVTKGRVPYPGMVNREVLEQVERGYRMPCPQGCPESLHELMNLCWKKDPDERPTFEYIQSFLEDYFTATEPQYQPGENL
Method: as §1, §2

SMILES	BTK activity compared to the control (BTK) [%]	CAMK1 activity compared to the control (CAMK1) [%]	CK2 activity compared to the control (CK2) [%]	EPH-B3 activity compared to the control (EPH-B3) [%]	ERK1 activity compared to the control (ERK1) [%]	Lck activity compared to the control (Lck) [%]	NEK2a activity compared to the control (NEK2a) [%]	PAK4 activity compared to the control (PAK4) [%]	PIM2 activity compared to the control (PIM2) [%]	PKA activity compared to the control (PKA) [%]	PKCa activity compared to the control (PKCa) [%]	PRAK activity compared to the control (PRAK) [%]	ROCK2 activity compared to the control (ROCK2) [%]	SYK activity compared to the control (SYK) [%]	SmMLCK activity compared to the control (SmMLCK) [%]	YES1 activity compared to the control (YES1) [%]
CO[C@H]1CC[C@H](NC(=O)c2n[nH]cc2NC(=O)c2ccccc2)CC1 [Compound 4f, 4-Benzamido-N-(4-methoxycyclohexyl)-1H-pyrazole-3-carboxamide]	100	36	74	60	75	76	100	68	90	81	49	52	81	78	25	100
COc1cccc(OC)c1C(=O)Nc1c[nH]nc1C(=O)NC1CCC(OC)CC1 (stereo not drawn) [Compound 4m, 4-(2,6-Dimethoxybenzamido)-N-(4-methoxycyclohexyl)-1H-pyrazole-3-carboxamide]	100	76	100	100	100	90	99	74	97	74	90	92	74	100	65	79
CO[C@H]1CC[C@H](NC(=O)c2n[nH]cc2NC(=O)c2ccc(-c3ccccc3)o2)CC1 [Compound 4y, N-(4-Methoxycyclohexyl)-4-(5-phenylfuran-2-carboxamido)-1H-pyrazole-3-carboxamide]	100	46	21	72	33	67	69	27	82	76	48	65	72	70	23	45
